According to US20190192699A1, “NUCLEAR IMAGING AND RADIOTHERAPEUTICS AGENTS TARGETING CARBONIC ANHYDRASE IX AND USES THEREOF” (THE JOHNS HOPKINS UNIVERSITY, priority 2016, published 2019):

What was measured:
CAIX [1] = biological target: T1, CAIX (Homo sapiens, UniProt Q16790); design: host or cells: ccRCC tumours in patients; conditions: Wichert et al., 2015; read-out: Kd for CAIX (known / reported); cited from earlier work
CAIX [2] = biological target: T1, CAIX; assay: Competitive fluorescence polarization assay for [113/115In]XYIMSR-01; assay type: binding; design: purchased R&D Systems
Description: (§1) General Procedures. Solvents and chemicals obtained from commercial sources were of analytical grade or better and used without further purification. Fmoc-protected azidolysine, HBTU, and N-α-fmoc-L-aspartic acid α-tert-butyl ester were purchased from Chem Impex International, Inc. (Wooddale, Ill.). Carrier-free [^111In]InCl3 was purchased from MDS Nordion (Ottawa, ON, Canada). DOTA-NHS-ester (1,4,7,10-tetraazacyclododecane-1,4,7,10-tetraacetic acid mono N-hydroxysuccinimide ester) was purchased from Macrocyclics, Inc. (Dallas, Tex.). Indium (III) nitrate, triethylsilane (Et3SiH), N,N-diisopropylethylamine (DIEA), triethylamine (TEA), piperidine, 4,4-bis(4-hydroxyphenyl)valeric acid, copper iodide (CuI), and tris[(1-benzyl-1H-1,2,3-triazol-4-yl)methyl]amine (TBTA) were purchased from Sigma-Aldrich (Saint Louis, Mo.). Pre-loaded O-bis-(aminoethyl)ethylene glycol on trityl resin was purchased from EMD Millipore (Billerica, Mass.). Flash chromatography was performed using MP SiliTech 32-63 D 60 Å silica gel purchased from Bodman (Aston, Pa.). Recombinant human CAIX was purchased from R&D Systems (Minneapolis, Minn.). 1H NMR spectra were recorded on a Bruker Ultrashield 500 MHz spectrometer. Chemical shifts (δ) were reported in ppm downfield by reference to proton resonances resulting from incomplete deuteration of the NMR solvent. ESI mass spectra were obtained on a Bruker Daltonics Esquire 3000 Plus spectrometer (Billerica, Mass.).
Competitive Fluorescence Polarization Assay for [^113/115In]XYIMSR-01. Fluorescence polarization (FP) experiments were performed in 21 μL of the assay buffer (12.5 mM Tris-HCl, pH 7.5, 75 mM NaCl) in black flat bottom 384-well microplates (Corning, Inc., New York, N.Y.) The FP reaction employed 100 nM of purified CAIX (R&D systems, Minneapolis, Minn.) and 80 nM FITC-labeled 8 (Wichert, et al., 2015) within the assay buffer. The FP values were measured as mP units using the Victor3 multi-label plate reader equipped with excitation (485 nm) and emission (535 nm) filters (Perkin Elmer, Waltham, Mass.). 100 nM CAIX was incubated with serially diluted (from 1 μM to 61 fM) concentrations of the three targeting molecules, 2, XYIMSR-01, and [^113/115In]XYIMSR-01 for 30 min at room temperature in 384-well plates. 80 nM 8 was added to each well and the reaction was incubated for 30 min at room temperature followed by FP measurement. Experiments were carried out in triplicate and the concentration resulting in 50% response (IC50) was calculated in GraphPad Prism 5 (GraphPad Software, La Jolla, Calif.) using the sigmoidal dose-response regression function.

CAIX [3] = biological target: T1, CAIX; assay: Competitive fluorescence polarization assay for [Al19F]XYIMSR-04, [63/65Cu]XYIMSR-06 and [175Lu]XYIMSR-01; assay type: binding; design: purchased R&D Systems; conditions: 100 nM CAIX, 80 nM FITC-labeled ligand; read-out: IC50, competitive fluorescence polarization (similar method)
Description: as §1
Competitive Fluorescence Polarization Assay for [Al^19F]XYIMSR-04, [^63/65Cu]XYIMSR-06, and [^175Lu]XYIMSR-01. Fluorescence polarization (FP) experiments were performed in 21 μL of the assay buffer (12.5 mM Tris-HCl, pH 7.5, 75 mM NaCl) in transparent flat bottom 384 well Small Volume™ LoBase Microplates (Greiner Bio-One, Frickenhausen Germany). The FP reaction employed 100 nM of purified CAIX (R&D systems, Minneapolis, Minn.) and 80 nM FITC-labeled ligand within the assay buffer. The FP values were measured as mP units using the Safire2™ plate reader (Tecan, Morrisville, N.C.) with excitation at 475 nm and emission at 532 nm emission. 100 nM CAIX was incubated with serially diluted (from 8 μM to 488.2 fM) concentrations of the […] targeting molecules, 2, [Al^19F]XYIMSR-04, [^63/65Cu]XYIMSR-06 and [^175Lu]XYIMSR-01 for 30 min at room temperature in 384 well plates. 80 nM FITC-labeled ligand was added to each well and the reaction was incubated for 30 min at room temperature followed by FP measurements. Experiments were carried out in triplicate and the concentration resulting in 50% response (IC50) was calculated in GraphPad Prism 5 (GraphPad Software, La Jolla, Calif.) using the sigmoidal dose-response regression function.

- IC50 (CAIX [2]; 100 nM CAIX, 80 nM FITC-labeled 8, read-out: IC50, inhibition of fluorescence polarization of FITC labeled 8): 75.9 nM
- binding affinity to CAIX (in words) (CAIX [2]; competitive fluorescence polarization): high binding affinity
- IC50 (CAIX [3]): 63.6 ± 2.8 nM
Structure (SMILES): CC(CCC(=O)N[C@@H](CC(=O)N[C@@H](CC(=O)N[C@@H](CCCCn1cc(CCCC(=O)Nc2nnc(S(N)(=O)=O)s2)nn1)C(=O)NCCOCCOCCN)C(=O)O)C(=O)O)(c1ccc(O)cc1)c1ccc(O)cc1 [compound 3, N^4-((S)-1-((2-(2-(2-aminoethoxy)ethoxy)ethyl)amino)-1-oxo-6-(4-(4-oxo-4((5-sulfamoyl-1,3,4-thiadiazol-2-yl)amino)butyl)-1H-1,2,3-triazol-1-yl)hexan-2-yl)-N^2-((S)-3-(4,4-bis(4-hydroxyphenyl)pentanamido)-3-carboxypropanoyl)-L-asparagine, reference compound]
- Kd (CAIX [1]): 2.6 nM
